# Values quoted from earlier work in US6696084B2 (RTP Pharma Inc., priority 2000, dated 2004).
# Columns and labels:
# [1] = oral administration with or without food
solubility in acetone,solubility in ethanol,solubility in methanol,solubility in water,solubility in acetonitrile,solubility in chloroform (chloroform),solubility in ether (ether),solubility in isopropanol (isopropanol),SMILES,food effect on absorption / uptake [1]
very slightly soluble,soluble,soluble,soluble,,,,,COCc1c(C(C)C)nc(C(C)C)c(/C=C/[C@@H](O)C[C@@H](O)CC(=O)O)c1-c1ccc(F)cc1 [Cerivastatin],not sensitive to a food effect
,soluble,soluble,soluble,,,,,CC(C)n1c(/C=C/C(O)CC(O)CC(=O)O)c(-c2ccc(F)cc2)c2ccccc21 (stereo not drawn) [Fluvastatin],reduces the rate but not the extent of absorption
,sparingly soluble,sparingly soluble,insoluble,sparingly soluble,,,,CC[C@H](C)C(=O)O[C@H]1C[C@@H](C)C=C2C=C[C@H](C)[C@H](CC[C@@H]3C[C@@H](O)CC(=O)O3)[C@H]21 [Lovastatin],
practically insoluble,,,,practically insoluble,practically insoluble,practically insoluble,slightly soluble,CC[C@H](C)C(=O)O[C@H]1C[C@H](O)C=C2C=C[C@H](C)[C@H](CC[C@@H](O)C[C@@H](O)CC(=O)O)[C@H]21 [Pravastatin],
